Test results as given in patent US20230096766A1, “AMINO ACID HAVING FUNCTIONAL GROUP CAPABLE OF INTERMOLECULAR HYDROGEN BONDING, PEPTIDE COMPOUND CONTAINING SAME AND METHOD FOR PRODUCTION THEREOF” (Chugai Seiyaku Kabushiki Kaisha, priority 2018, published 2023).
*1 amine or outer side, *2 acyl side, *3 side chain or, on linkers, in order; H or OH if unused. Where a SMILES comes first, the peptide text is derived from it. Bridges are numbered along the chain shown (N, C = ends). [ ]: non-standard residue; d: D form. The star is where a group is joined. ξ: configuration not given here. X1 = COc1cc(C[C@H](N[*:1])C(=O)[*:2])ccc1C(=O)NO; NMePhe(3-Cl) = CN[C@@H](Cc1cccc(Cl)c1)C(=O)O; X16 = CC(C)C(C)[C@H](N[*:1])C(=O)[*:2]; NMehPhe = CN[C@@H](CCc1ccccc1)C(=O)O; Propyl(2,2-Me2,3-OH) = CC(C)(CO)C*; X6 = O=C([C@H](CCCCO)N[*:1])[*:2]; Hyp = O=C(O)[C@@H]1C[C@@H](O)CN1; NMeF = CN[C@@H](Cc1ccccc1)C(=O)O; NMeGABA = CN(CCCC(=O)[*:2])[*:1]; NMeβAla = CN(CCC(=O)[*:2])[*:1]; CH2CONHtBu = CC(C)(C)NC(=O)C*; NMeL = CN[C@@H](CC(C)C)C(=O)O; Thr(3ξ) = CC(O)[C@H](N)C(=O)O; dNMeL = CN[C@H](CC(C)C)C(=O)O; Butyl(3S-OH) = C[C@H](O)CC*; NMeV = CN[C@H](C(=O)O)C(C)C; NMeA = CN[C@@H](C)C(=O)O; Piperidide = C1CCN(*)CC1; dAbu = CC[C@@H](N)C(=O)O; X8 = C1COC[C@@H](C*)N1; NBuGly = CCCCNCC(=O)O; Ethyl(2-OH) = OCC*; Sar = CNCC(=O)O; tBu = CC(C)(C)*

assay: in vitro; details: human, Caco-2, Caco-2 (cm/sec)

Point of comparison: `CC(C)C[C@@H]1NC(=O)[C@H](CC(C)C)N(C)C(=O)[C@H](CCc2ccccc2)N(C)C(=O)[C@H](COCC(=O)NC(C)(C)C)NC(=O)[C@H](CC(C)C)N(C)C(=O)C[C@@H](C(=O)N2CCCCC2)NC(=O)[C@H](C)N(C)C(=O)CN(C)C(=O)[C@H]([C@@H](C)O)NC(=O)[C@H](CCc2ccccc2)N(C)C(=O)[C@H](CC(C)C)N(C)C1=O` [AP16] ([NMeL]S(CH2CONHtBu)[NMehPhe][NMeL]L[NMeL][NMehPhe]T[Sar][NMeA]D-Piperidide; lactam N-11), Papp 0.27 ×10⁻⁶ cm/s. Against it:
- CC[C@H]1NC(=O)C[C@@H](C(=O)N2CCCCC2)NC(=O)[C@H](CC(C)C)N(C)C(=O)[C@H](Cc2cccc(Cl)c2)N(C)C(=O)[C@H](CCCCO)NC(=O)[C@H](CC(C)C)N(C)C(=O)CN(C)C(=O)[C@H]([C@@H](C)O)NC(=O)[C@H](CC(C)C)N(C)C(=O)[C@H](CC(C)C)NC(=O)[C@H](CCc2ccccc2)N(C)C1=O [Compound B02] ([dAbu][NMehPhe]L[NMeL]T[Sar][NMeL][X6][NMePhe(3-Cl)][NMeL]D-Piperidide; lactam N-11) — 1.8-fold lower, 0.15 ×10⁻⁶ cm/s
- CC[C@H](C)[C@@H]1NC(=O)[C@H](CC(C)C)N(C)C(=O)CCCN(C)C(=O)C[C@@H](C(=O)N2CCCCC2)NC(=O)[C@H](CC(C)C)N(C)C(=O)[C@H](CC(C)C)N(C)C(=O)[C@H]([C@@H](C)O)NC(=O)[C@H](CC(C)C)N(C)C(=O)[C@H](COC[C@@H]2COCCN2)NC(=O)[C@H](CC(C)C)N(C)C(=O)[C@H](Cc2ccccc2)N(C)C1=O [AP241] ([NMeGABA][NMeL]I[NMeF][NMeL]S(X8)[NMeL]T[NMeL][NMeL]D-Piperidide; lactam N-11) — 5.4-fold lower, 0.05 ×10⁻⁶ cm/s
- CC(C)C[C@@H]1NC(=O)[C@H](Cc2ccccc2)N(C)C(=O)[C@H](CC(C)C)N(C)C(=O)CCN(C)C(=O)C[C@@H](C(=O)N2CCCCC2)NC(=O)[C@H](CC(C)C)N(C)C(=O)[C@H](Cc2ccccc2)N(C)C(=O)[C@H]([C@@H](C)O)NC(=O)[C@H](Cc2ccccc2)N(C)C1=O [pd207] ([NMeβAla][NMeL][NMeF]L[NMeF]T[NMeF][NMeL]D-Piperidide; lactam N-9) — 6.3-fold higher, 1.7 ×10⁻⁶ cm/s
- CCCCN1CC(=O)N(C)[C@@H](CC(C)C)C(=O)N[C@H](C(=O)N2CCCCC2)CC(=O)N(C)[C@@H](C)C(=O)N[C@@H](COCC[C@H](C)O)C(=O)N(C)[C@@H](CC(C)C)C(=O)N(C)[C@@H](Cc2cccc(Cl)c2)C(=O)N[C@@H](CC(C)C)C(=O)N(C)[C@@H](Cc2ccccc2)C(=O)N(C)[C@@H](C(C)C)C(=O)N[C@@H]([C@@H](C)O)C1=O [AP103] ([NMeA]S(Butyl(3S-OH))[NMeL][NMePhe(3-Cl)]L[NMeF][NMeV]T[NBuGly][NMeL]D-Piperidide; lactam N-11) — 3.3-fold higher, 0.89 ×10⁻⁶ cm/s
- CC(C)C[C@H]1C(=O)N[C@@H](Cc2ccc(O)cc2)C(=O)N(C)[C@@H](CC(C)C)C(=O)N(C)[C@@H](Cc2ccccc2)C(=O)N[C@@H](COC(C)(C)C)C(=O)N(C)[C@@H](CC(C)C)C(=O)N[C@@H]([C@@H](C)O)C(=O)N(C)[C@@H](CC(C)C)C(=O)N(C)[C@@H](CC(C)C)C(=O)N[C@H](C(=O)N2CCCCC2)CC(=O)N(C)CCCC(=O)N1C [Compound F04] ([NMeGABA][NMeL]Y[NMeL][NMeF]S(tBu)[NMeL]T[NMeL][NMeL]D-Piperidide; lactam N-11) — 2.1-fold lower, 0.13 ×10⁻⁶ cm/s
- CC[C@H](C)[C@@H]1NC(=O)[C@H](CC(C)C)N(C)C(=O)CN(C)C(=O)C[C@@H](C(=O)N2CCCCC2)NC(=O)[C@H](CC(C)C)N(C)C(=O)[C@H](Cc2ccc(C(=O)NO)c(OC)c2)NC(=O)[C@H](CC(C)C)N(C)C(=O)[C@H](Cc2cccc(Cl)c2)N(C)C(=O)CN(C)C(=O)[C@H](C(C)O)NC(=O)[C@H](CC(C)C)N(C)C1=O (stereo partly drawn) [AP261] ([Sar][NMeL]I[NMeL][Thr(3ξ)][Sar][NMePhe(3-Cl)][NMeL][X1][NMeL]D-Piperidide; lactam N-11) — 14-fold lower, 0.02 ×10⁻⁶ cm/s
- CC[C@H](C)[C@@H]1NC(=O)[C@H](CC(C)C)N(C)C(=O)[C@@H]2C[C@@H](OCCO)CN2C(=O)[C@H]([C@@H](C)O)NC(=O)[C@H](CC(C)C)N(C)C(=O)[C@H](CC(C)C)NC(=O)[C@H](C(C)C(C)C)NC(=O)[C@@H](CC(C)C)N(C)C(=O)C[C@@H](C(=O)N2CCCCC2)NC(=O)[C@H](CC(C)C)NC(=O)[C@H](CC(C)C)N(C)C1=O (stereo partly drawn) [AP233] ([dNMeL][X16]L[NMeL]T[Hyp](Ethyl(2-OH))[NMeL]I[NMeL]LD-Piperidide; lactam N-11) — 11-fold higher, 3 ×10⁻⁶ cm/s
- CCCCN1CC(=O)N(C)[C@@H](CC(C)C)C(=O)N[C@@H](COC(C)(C)C)C(=O)N(C)[C@@H](Cc2ccccc2)C(=O)N(C)[C@@H](CC(C)C)C(=O)N[C@H](C(=O)N2CCCCC2)CC(=O)N[C@H](CC)C(=O)N(C)[C@@H](Cc2ccccc2)C(=O)N[C@@H](COCC(C)(C)CO)C(=O)N(C)[C@@H](CC(C)C)C(=O)N[C@@H]([C@@H](C)O)C1=O [AP117] ([dAbu][NMeF]S(Propyl(2,2-Me2,3-OH))[NMeL]T[NBuGly][NMeL]S(tBu)[NMeF][NMeL]D-Piperidide; lactam N-11) — within 1.5-fold, 0.36 ×10⁻⁶ cm/s
